Results: paper PMC7560626, “Active site competition is the mechanism for the inhibition of lipoprotein-associated phospholipase A2 by detergent micelles or lipoproteins and for the efficacy reduction of darapladib” (Scientific Reports, 2020)
Where two headings read alike, the source gives them in different places.

Columns and labels:
Lp-PLA2 [1] = biological target: T1, Lp-PLA2 (Homo sapiens, UniProt Q13093); experiment: Kinetics of hydrolysis of 14:0 NPS-PC by recombinant Lp-PLA2; assay type: biochemical
T1 sequence (Q13093 22-441): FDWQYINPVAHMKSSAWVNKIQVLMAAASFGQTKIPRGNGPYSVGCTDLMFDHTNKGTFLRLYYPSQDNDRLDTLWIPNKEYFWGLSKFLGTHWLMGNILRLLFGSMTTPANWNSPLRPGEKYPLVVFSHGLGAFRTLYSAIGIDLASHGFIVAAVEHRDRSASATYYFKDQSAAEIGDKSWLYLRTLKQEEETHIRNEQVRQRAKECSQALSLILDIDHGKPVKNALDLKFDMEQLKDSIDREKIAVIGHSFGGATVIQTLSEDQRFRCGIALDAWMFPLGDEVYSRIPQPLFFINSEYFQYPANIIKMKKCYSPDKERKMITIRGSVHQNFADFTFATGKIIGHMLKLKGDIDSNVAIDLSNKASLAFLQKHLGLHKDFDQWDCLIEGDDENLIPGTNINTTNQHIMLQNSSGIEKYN
Description: (a) Fitting of kinetic model for hydrolysis of 14:0 NPS-PC in the absence and presence of 10 mM CHAPS. […] Details are in Experiment Procedures. (c) Determination of CMC for 14:0 NPS-PC and CHAPS by anisotropy of polarized fluorescence using fluorescein as probe. Details are in Experiment Procedures.
Lp-PLA2 activity was assayed under different conditions and different methods were used. […] Purified recombinant Lp-PLA2 in storage buffer was diluted into TBS or PBS, pH 7.4–7.6, at the concentration of 1 µg/ml and 20 µl of the solution were used for each reaction. […] Generally, hydrolysis of 14:0 NPS-PC was monitored at 405 nm for 5 min under ambient temperature for all kinetic assays. […] Lp-PLA2 kinetic assays were performed in the same assay buffer with 14:0 NPS-PC concentrations as indicated. Assays were carried out in 96-well plates using a SpectraMax m2e plate reader. Hydrolysis of 14:0 NPS-PC was monitored at 405 nm for 5 min under ambient temperature. Serum Lp-PLA2 activity and mass concentration were measured by using PLAC activity and mass test kits (diaDexus) following the manufacturer's instruction. PLAC mass measurements were performed by manual ELISA and PLAC activity measurements were carried out by the Beckman Coulter AU400 analyzer as described in a previous publication. Twenty or forty μl of the fractionated sample per tube were used, depending on the Lp-PLA2 concentration of the samples. Ten mM CHAPS-modified PLAC ELISA test kits were made by adding solid CHAPS to the assay buffer to the final concentration of 10 mM. The assays follow the same instructions as the unmodified PLAC mass test kits. Other Lp-PLA2 activity assays are as indicated in figures or other experimental sections.

[2] = CMC by polarized fluorescence anisotropy with fluorescein as probe; assay type: physicochemical; details: TBS, pH 7.4
Description: CMC of CHAPS and 14:0 NPS-PC were determined by polarized fluorescence anisotropy based on the method by Thorsteinsson et al.[21] with modification in a Varian Cary Eclipse fluorescence spectrophotometer using fluorescein as probe. Fluorescein was dissolved in TBS, pH 7.4, at final concentration of 0.1 µM. Solid CHAPS (control) or 14:0 NPS-PC was dissolved in TBS-fluorescein solution at concentrations indicated in figure and subjected to serial dilution in the same buffer. All fleshly prepared solutions were measured for fluorescence emission at 520 nm (excited at 490 nm) and compared the emission optics for the horizontal orientation to the vertical orientation. The anisotropy ratio of fluorescence intensities was plotted against the concentration incrementation of CHAPS or 14:0 NPS-PC. The anisotropy ratio was calculated as the followings. Anisotropyratior=IVV-G×IVH÷IVV+2×G×IVH where IVV indicates the intensity with vertically polarized excitation and vertical polarization on the detected emission. IVH indicates the intensity when using a vertical polarizer on the excitation and horizontal polarizer on the emission. G is a grating factor used as a correction for the instrument’s differential transmission of the two orthogonal vector orientations.

[3] = Distribution in bulk phase, detergent micelles and lipoproteins by SEC (TSKgel G3000SWXL); assay type: physicochemical
Description: Figure 8 Distribution of 14:0 NPS-PC and darapladib under different conditions. Assay methods are described in Experimental Procedures. (a) Distribution of 14:0 NPS-PC in TBS, pH 7.4, with and without detergents. Twenty µl of 14:0 NPS-PC at 10 µM were resolved by a TSKgel G3000SWXL column in TBS, pH 7.4, containing no detergent, 10 mM CHAPS or 60 µM Tween-20. Absorbance at 260 nm were monitored for 14:0 NPS-PC. Bulk phase is after fraction number 17 or after elution time 17 min. (b) Distribution of darapladib in TBS, pH 7.4, with and without detergents. Forty µl of darapladib in mobile phase buffer at 0.2 µM were resolved by a TSKgel G3000SWXL column in TBS, pH 7.4, containing no detergent, 10 mM CHAPS or 600 µM Tween-20. Relative darapladib concentration in each fraction was shown by inhibition of spiked Lp-PLA2. (c) Distribution of darapladib in TBS, pH 7.4, containing HDL or LDL. Forty µl of 1 mg/ml HDL or LDL with or without 0.2 µM darapladib were resolved by a TSKgel G3000SWXL column in TBS, pH 7.4. Relative darapladib concentration in each fraction was quantitated by inhibition of spiked Lp-PLA2. (d) Distribution of darapladib in human serum. Forty µl of neat human serum with or without 150 µM darapladib under the conditions as indicated were resolved by a TSKgel G3000SWXL column in TBS, pH 7.4. Relative darapladib concentration in each fraction was determined by inhibition of spiked Lp-PLA2.
Fractionation chromatography was carried out on an Akta10 or Akta100 by using a 10 mm × 300 mm Sperose-6 column at ambient temperature with the flow rate of 0.3 ml per minute. Fifty to two hundred µl of serum samples were injected per run depending on the Lp-PLA2 concentrations of the samples after the column was equilibrated with the running buffer (PBS, pH 7.2). Fraction collection was started at 21 min after sample injection and the collection volume was 0.6 ml/tube. Distribution of 14:0 NPS-PC and darapladib were carried out by separation of 20 – 40 µl of samples on a TSKgel G3000SWXL (7.8 mm × 30 cm, 5 µm) in TBS, pH 7.4, with and without detergents using a HPLC at flow rate of 0.8 ml/min. Fractions were collected at 1 min per tube starting at 6 min and ending at 21 min. Signal of 14:0 NPS-PC was detected by monitoring at 260 nm. Darapladib were assayed based on its inhibition of Lp-PLA2 activity. To one hundred µl of fraction, 10 µl of Lp-PLA2 at the concentration of approximately 0.5 µg/ml were added and the mixture was incubated at ambient temperature for 30 min with shaking. Reaction was started by adding 50 µl of mixture of CHAPS, SNS (sodium 1-nonane sulfonate) and 14:0 NPS-PC in buffer of 150 mM HEPES, pH 7.5, containing 12 mM EDTA. The final concentrations of CHAPS, SNS and 14:0 NPS-PC were 5 mM, 10 mM and 50 µM respectively. The hydrolysis reaction was monitored at 405 nm for 5 min. Fractions were also assayed for residual Lp-PLA2 activity by mixing in 100 µl fraction with 50 µl buffer of 150 mM HEPES, pH 7.5, containing 30 mM SNS, 30 mM CHAPS, 12 mM EDTA and 1.6 mM 14:0 NPS-PC.

[4] = in Fig. 1a; source not stated; cited from earlier work
Lp-PLA2 [5] = test system: Lp-PLA2; parameters: method as in PMID 25173516, PMID 24678955; details: 160 mg daily for 12 weeks; cited from earlier work

**Q.** For `CCCCCCCCCCCCCC(=O)OC[C@H](COP(=O)([O-])OCC[N+](C)(C)C)OC(=O)CCC(=O)Oc1ccc([N+](=O)[O-])cc1` [14:0 NPS-PC, 1-myristoyl-2-(4-nitrophenylsuccinyl)-sn-glycero-3-phosphocholine], which “Hill slope of the substrate titration curve” value (Lp-PLA2 [1]; absence of 10 mM CHAPS) is on record?
**A.** approximately 2.0

**Q.** What about the “Hill slope of the substrate titration curve” value (Lp-PLA2 [1]; presence of 10 mM CHAPS) of the same compound?
**A.** approximately 1.0

**Q.** And the Km (Lp-PLA2 [1]; with 10 mM CHAPS)?
**A.** 238 ± 11.7 µM

**Q.** And the Vmax (Lp-PLA2 [1]; with 10 mM CHAPS)?
**A.** 187 ± 2 nmol/min/mL

**Q.** And the Km (Lp-PLA2 [1]; without CHAPS)?
**A.** 187 ± 18.5 µM

**Q.** What about the Vmax (Lp-PLA2 [1]; without CHAPS) of the same compound?
**A.** 191 ± 5 nmol/min/mL

**Q.** What about the CMC [2] of the same compound?
**A.** 0.5 to 1 mM

**Q.** What about the “form in bulk phase” value ([3]; 10 µM in TBS pH 7.4, absence of detergents) of the same compound?
**A.** existed only as monomer

**Q.** And the “monomeric fraction detected in bulk” value ([3]; 10 µM in TBS pH 7.4 in presence of detergents)?
**A.** Less than 5%

**Q.** What about the “fraction in mixed micelles” value ([3]; 10 µM in TBS pH 7.4 with 10 mM CHAPS or 60 µM Tween-20) of the same compound?
**A.** > 95%

**Q.** For `C[C@H](CCC(=O)NCCC[N+](C)(C)CCCS(=O)(=O)[O-])[C@H]1CC[C@H]2[C@@H]3[C@H](O)C[C@@H]4C[C@H](O)CC[C@]4(C)[C@H]3C[C@H](O)[C@]12C` [CHAPS, 3-[(3-Cholamidopropyl)dimethylammonio]-1-propanesulfonate], which CMC [2] is on record?
**A.** 5 to 10 mM

**Q.** And the CMC [4]?
**A.** 6 to 10 mM

**Q.** For `C[C@@H]1CC[C@@]2(OC1)O[C@H]1[C@@H](O)[C@H]3[C@@H]4CC[C@H]5C[C@@H](O[C@@H]6O[C@H](CO)[C@H](O[C@@H]7O[C@H](CO)[C@@H](O)[C@H](O[C@@H]8OC[C@@H](O)[C@H](O)[C@H]8O)[C@H]7O[C@@H]7O[C@H](CO)[C@H](O)[C@H](O[C@@H]8O[C@H](CO)[C@@H](O)[C@H](O)[C@H]8O)[C@H]7O)[C@H](O)[C@H]6O)[C@H](O)C[C@]5(C)[C@H]4CC[C@]3(C)[C@H]1[C@@H]2C` [Digitonin], which CMC [4] is on record?
**A.** 0.09 mM

**Q.** Which results are given for `CCN(CC)CCN(Cc1ccc(-c2ccc(C(F)(F)F)cc2)cc1)C(=O)Cn1c(SCc2ccc(F)cc2)nc(=O)c2c1CCC2` [darapladib]?
**A.** detection in TBS buffer (solubility) ([3]; 0.2 µM in TBS pH 7.4, absence of detergents): not detectable; solubilization by detergents ([3]; 0.2 µM in TBS pH 7.4 with 10 mM CHAPS or 0.6 mM Tween-20): solubilized; reduction of Lp-PLA2 activity (Lp-PLA2 [5]): approximately 66%

**Q.** With Triton X-100 as the compound, how does the CMC [4] read?
**A.** 0.3 mM

**Q.** Which “mechanism of inhibition of Lp-PLA2” value (Lp-PLA2 [1]; Lineweaver–Burk plots at different Tween-20 concentrations) does the source give for Tween-20 here?
**A.** competitive

**Q.** What about the CMC [4] of the same compound?
**A.** 0.06 mM
